Counter-ions that a name gives are not always drawn. Like-named read-outs stand apart in the source and are kept apart here.
What was measured:
Assay in all cases: MIC, standard broth dilution method in microtitre
Type in all cases: cell-based
[1] = test system: S. aureus Smith ATCC 13709; conditions: Staphylococcus aureus, ATCC13709
Procedure: (§1) Using a standard broth dilution method in microtitre, compounds were tested for antibacterial activity. The compounds in the above examples gave minimum inhibitory concentrations (MICs) less than 1 microgram per millilitre against erythromycin-sensitive and erythromycin-resistant strains of Streptococcus pneumoniae and Streptococcus pyogenes.
(§2) In addition, the MIC (μg/ml) of test compounds against various organisms was determined including:
(§3) S. aureus Smith ATCC 13709, S. pneumoniae SP030, S. pyogenes 3565, E. faecalis ATCC 29212, H. influenzae ATCC 49247, M. catarrhalis ATCC 23246.

[2] = test system: S. pneumoniae SP030; conditions: Streptococcus pneumoniae
Procedure: as §1, §2, §3

[3] = test system: E. faecalis ATCC 29212; conditions: Enterococcus faecalis, ATCC29212
Procedure: as §1, §2, §3

[4] = test system: S. pyogenes 3565; conditions: Streptococcus pyogenes
Procedure: as §1, §2, §3

[5] = test system: H. influenzae ATCC 49247; conditions: Haemophilus influenzae, ATCC49247
Procedure: as §1, §2, §3

[6] = test system: M. catarrhalis ATCC 23246; conditions: Moraxella catarrhalis, ATCC23246
Procedure: as §1, §2, §3

[7] = test system: erythromycin resistant strains of Streptococcus pyogenes
Procedure: as §1

[8] = test system: erythromycin resistant strains of Streptococcus pneumoniae
Procedure: as §1

[9] = H. influenzae ATCC 49247, read-out: MIC

Structure (SMILES)	MIC [1] [µg/mL]	MIC [2] [µg/mL]	MIC [3] [µg/mL]	MIC [4] [µg/mL]	MIC [6] [µg/mL]	MIC [7] [µg/mL]	MIC [8] [µg/mL]	MIC [5, 9] [µg/mL]	MIC [5] [µg/mL]
CC[C@@H]1OC(=O)[C@H](C)[C@H](O[C@H]2C[C@](C)(OC)[C@@H](OCCN(C)CCNc3cc4c(cc3F)c(=O)c(C(=O)O)cn4C3CC3)[C@@H](C)O2)[C@@H](C)[C@H](O[C@H]2O[C@@H](C)C[C@@H](N(C)C)[C@H]2O)[C@](C)(OC)C[C@H](C)C(=O)[C@H](C)[C@H]2OC(=O)O[C@@]12C [Example 1, 4″-O-(2-{[2-(3-Carboxy-1-cyclopropyl-6-fluoro-4-oxo-1,4-dihydro-quinolin-7-ylamino)-ethyl]-methylamino}-ethyl)-6-O-methyl-erythromycin A 11,12-carbonate bis trifluoroacetate]	≤ 1	≤ 1	≤ 1	≤ 1	≤ 4	≤ 1	≤ 1	–	≤ 4
CC[C@@H]1OC(=O)[C@H](C)[C@H](O[C@@H]2C[C@](C)(OC)[C@H](OCCCN(C)CCNc3cc4c(cc3F)c(=O)c(C(=O)O)cn4C3CC3)[C@H](C)O2)[C@@H](C)[C@H](O[C@H]2O[C@@H](C)C[C@@H](N(C)C)[C@H]2O)[C@](C)(OC)C[C@H](C)C(=O)[C@H](C)[C@H]2OC(=O)O[C@@]12C [Example 2, 4″-O-(3-{[2-(3-Carboxy-1-cyclopropyl-6-fluoro-4-oxo-1,4-dihydro-quinolin-7-ylamino)ethyl]-methylamino}-propyl)-6-O-methyl-erythromycin A 11,12-carbonate]	≤ 1	≤ 1	≤ 1	≤ 1	≤ 4	≤ 1	≤ 1	≤ 4	–
CC[C@@H]1OC(=O)[C@H](C)[C@H](O[C@@H]2C[C@](C)(OC)[C@H](OCCCNCCOc3cc4c5c(c3)c(=O)c(C(=O)O)cn5CCC4)[C@H](C)O2)[C@@H](C)[C@H](O[C@H]2O[C@@H](C)C[C@@H](N(C)C)[C@H]2O)[C@](C)(OC)C[C@H](C)C(=O)[C@H](C)[C@H]2OC(=O)O[C@@]12C [Example 6, 4″-O-{3-[2-(2-Carboxy-1-oxo-6,7-dihydro-1H,5H-pyrido[3,2,1-ij]quinoline-9-yloxy)-ethylamino]-propyl}-6-O-methyl-erythromycin A 11,12-carbonate bisformate]	≤ 1	≤ 1	≤ 1	≤ 1	≤ 4	≤ 1	≤ 1	≤ 4	–
CC[C@@H]1OC(=O)[C@H](C)[C@H](O[C@@H]2C[C@](C)(OC)[C@H](OCCCN(C)CCCc3ccc4c(c3)c(=O)c(C(=O)O)cn4CC)[C@H](C)O2)[C@@H](C)[C@H](O[C@H]2O[C@@H](C)C[C@@H](N(C)C)[C@H]2O)[C@](C)(OC)C[C@H](C)C(=O)[C@H](C)[C@H]2OC(=O)O[C@@]12C [Example 13, 4″-O-(3-{[3-(3-Carboxy-1-ethyl-4-oxo-1,4-dihydro-quinolin-6-yl)propyl]-methylamino}-propyl)-6-O-methyl-erythromycin A 11,12-carbonate formate]	≤ 1	≤ 1	≤ 1	≤ 1	≤ 4	≤ 1	≤ 1	≤ 4	–
CC[C@@H]1OC(=O)[C@H](C)[C@H](O[C@@H]2C[C@](C)(OC)[C@H](OCCCN(C)CCNc3nc4c(cc3F)c(=O)c(C(=O)O)cn4CC)[C@H](C)O2)[C@@H](C)[C@H](O[C@H]2O[C@@H](C)C[C@@H](N(C)C)[C@H]2O)[C@](C)(OC)C[C@H](C)C(=O)[C@H](C)[C@H]2OC(=O)O[C@@]12C [Example 15]	≤ 1	≤ 1	≤ 1	≤ 1	≤ 4	≤ 1	≤ 1	≤ 4	–
CC[C@@H]1OC(=O)[C@H](C)[C@H](O[C@@H]2C[C@](C)(OC)[C@H](OCCNCCNc3nc4c(cc3F)c(=O)c(C(=O)O)cn4CC)[C@H](C)O2)[C@@H](C)[C@H](O[C@H]2O[C@@H](C)C[C@@H](N(C)C)[C@H]2O)[C@](C)(OC)C[C@H](C)C(=O)[C@H](C)[C@H](O)[C@@]1(C)O [Example 18, 4″-O-{2-[2-(3-Carboxy-1-ethyl-6-fluoro-4-oxo-1,4-dihydro-[1,8]naphthyridin-7-ylamino)ethyl]-amino}-ethyl}-6-O-methyl-erythromycin A monoformate]	≤ 1	≤ 1	≤ 1	≤ 1	≤ 4	≤ 1	≤ 1	≤ 4	–
CC[C@@H]1OC(=O)[C@H](C)[C@H](O[C@@H]2C[C@](C)(OC)[C@H](OCCN(C)CCNc3nc4c(cc3F)c(=O)c(C(=O)O)cn4CC)[C@H](C)O2)[C@@H](C)[C@H](O[C@H]2O[C@@H](C)C[C@@H](N(C)C)[C@H]2O)[C@](C)(OC)C[C@H](C)C(=O)[C@H](C)[C@H](O)[C@@]1(C)O [Example 19]	≤ 1	≤ 1	≤ 1	≤ 1	≤ 4	≤ 1	≤ 1	≤ 4	–
CC[C@@H]1OC(=O)[C@H](C)[C@H](O[C@@H]2C[C@](C)(OC)[C@H](OCCCOCCCc3ccc4c(c3)c(=O)c(C(=O)O)cn4CC)[C@H](C)O2)[C@@H](C)[C@H](O[C@H]2O[C@@H](C)C[C@@H](N(C)C)[C@H]2O)[C@](C)(OC)C[C@H](C)C(=O)[C@H](C)[C@H](O)[C@@]1(C)O [Example 20, 4″-O-{3-[3-(3-Carboxy-1-ethyl-4-oxo-1,4-dihydro-quinolin-6-yl)-propoxy]-propyl}-6-O-methyl-erythromycin A monoformate]	≤ 1	≤ 1	≤ 1	≤ 1	≤ 4	≤ 1	≤ 1	≤ 4	–

The next lines start with results.

MIC [1] [µg/mL]	MIC [2] [µg/mL]	MIC [3] [µg/mL]	MIC [4] [µg/mL]	MIC [6] [µg/mL]	MIC [7] [µg/mL]	MIC [8] [µg/mL]	MIC [5, 9] [µg/mL]	Structure (SMILES)	MIC [5] [µg/mL]
≤ 1	≤ 1	≤ 1	≤ 1	≤ 4	≤ 1	≤ 1	≤ 4	CC[C@H]1OC(=O)[C@H](C)[C@@H](O[C@H]2C[C@@](C)(OC)[C@@H](OCCCNCCNc3nc4c(cc3F)c(=O)c(C(=O)O)cn4CC)[C@H](C)O2)[C@H](C)[C@@H](O[C@@H]2O[C@H](C)CC(N(C)C)[C@H]2O)[C@](C)(OC)C[C@@H](C)C(=O)[C@@H](C)[C@H]2NC(=O)O[C@@]21C (stereo partly drawn) [Example 21, 4″-O-{3-[2-(3-Carboxy-1-ethyl-6-fluoro-4-oxo-1,4-dihydro-[1,8]naphthyridin-7-ylamino)-ethylamino]-propyl}-6-O-methyl-11-desoxy-11-(R)-amino-erythromycin A 11,12-carbamate formate]	–
≤ 1	≤ 1	≤ 1	≤ 1	≤ 4	≤ 1	≤ 1	≤ 4	CC[C@H]1OC(=O)[C@H](C)[C@@H](O[C@H]2C[C@@](C)(OC)[C@@H](OCCCNCCCc3ccc4c(c3C)c(=O)c(C(=O)O)cn4CC)[C@H](C)O2)[C@H](C)[C@@H](O[C@@H]2O[C@H](C)CC(N(C)C)[C@H]2O)[C@](C)(OC)C[C@@H](C)C(=O)[C@@H](C)[C@H]2NC(=O)O[C@@]21C (stereo partly drawn) [Example 23, 4″-O-{3-[3-(3-Carboxy-1-ethyl-5-methyl-4-oxo-1,4-dihydro-quinolin-6-yl)-propylamino]-propyl}-6-O-methyl-11-desoxy-11-(R)-amino-erythromycin A 11,12-carbamate formate]	–
≤ 1	≤ 1	≤ 1	≤ 1	≤ 4	≤ 1	≤ 1	≤ 4	CC[C@H]1OC(=O)[C@H](C)[C@@H](O[C@H]2C[C@@](C)(OC)[C@@H](OCCCN(C)CCNc3nc4c(cc3F)c(=O)c(C(=O)O)cn4CC)[C@H](C)O2)[C@H](C)[C@@H](O[C@@H]2O[C@H](C)C[C@H](N(C)C)[C@H]2O)[C@](C)(OC)C[C@@H](C)C(=O)[C@@H](C)[C@H]2NC(=O)O[C@@]21C [Example 27, 4″-O-{3-[[2-(3-Carboxy-1-ethyl-6-fluoro-4-oxo-1,4-dihydro-[1,8]naphthyridin-7-ylamino)-ethyl]-methylamino]-propyl}-6-O-methyl-11-desoxy-11-(R)-amino-erythromycin A 11,12-carbamate formate]	–
≤ 1	≤ 1	≤ 1	≤ 1	≤ 4	≤ 1	≤ 1	≤ 4	CC[C@H]1OC(=O)[C@H](C)[C@@H](O[C@H]2C[C@@](C)(OC)[C@@H](OCCCN(C)CCOc3cc4c5c(c3)c(=O)c(C(=O)O)cn5CCC4)[C@H](C)O2)[C@H](C)[C@@H](O[C@@H]2O[C@H](C)C[C@H](N(C)C)[C@H]2O)[C@](C)(OC)C[C@@H](C)C(=O)[C@@H](C)[C@H]2NC(=O)O[C@@]21C [Example 28, 4″-O-{3-[[2-(2-Carboxy-1-oxo-6,7-dihydro-1H,5H-pyrido[3,2,1-ij]quinolin-9-yloxy)-ethyl]-methylamino]-propyl}-6-O-methyl-11-desoxy-11-(R)-amino-erythromycin A 11,12-carbamate formate]	–
